According to US9957265B2, “N-(2-cyano heterocyclyl) pyrazolo pyridones as janus kinase inhibitors” (Merck Sharp & Dohme Corp., priority 2013, dated 2018):
Like-named read-outs stand apart in the source and are kept apart here.

Key:
JAK1 = JAK1 (Homo sapiens (Human), UniProt P23458); assay: Jak Biochemical HTRF Assay (JAK1); conditions: recombinant GST-tagged catalytic domain, [ATP] 31.8 μM, unit not given (compound concentrations tested given in nM)
Excerpt: Jak Biochemical HTRF Assay Protocol
Subsequent reagent additions employed an Agilent Bravo.

JAK2 = JAK2 (Homo sapiens (Human), UniProt O60674); assay: Jak Biochemical HTRF Assay (JAK2)
[1] = JAK2 IC50, recombinant GST-tagged catalytic domain, [ATP] 8.5 μM, unit not given (compound concentrations tested given in nM)
[2] = read-out: JAK2 IC50, recombinant GST-tagged catalytic domain, [ATP] 8.5 μM, unit not given (compound concentrations tested given in nM)

JAK2, sequence (O60674 849-1124): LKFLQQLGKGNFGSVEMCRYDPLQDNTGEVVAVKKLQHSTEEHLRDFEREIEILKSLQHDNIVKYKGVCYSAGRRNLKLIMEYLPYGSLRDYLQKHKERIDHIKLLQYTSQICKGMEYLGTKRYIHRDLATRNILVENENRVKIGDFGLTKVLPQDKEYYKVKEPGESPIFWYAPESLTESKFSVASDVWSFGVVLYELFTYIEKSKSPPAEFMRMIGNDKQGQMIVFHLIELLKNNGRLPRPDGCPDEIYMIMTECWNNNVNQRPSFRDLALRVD
JAK1, sequence (P23458 875-1153): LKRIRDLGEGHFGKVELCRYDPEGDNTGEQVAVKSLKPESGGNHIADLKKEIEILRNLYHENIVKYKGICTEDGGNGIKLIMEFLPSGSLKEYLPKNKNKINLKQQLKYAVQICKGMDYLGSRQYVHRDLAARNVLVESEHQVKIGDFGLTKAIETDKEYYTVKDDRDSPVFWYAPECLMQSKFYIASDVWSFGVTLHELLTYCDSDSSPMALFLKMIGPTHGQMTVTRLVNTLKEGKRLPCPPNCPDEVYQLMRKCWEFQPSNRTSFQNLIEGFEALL

IC50 (JAK1) [nM]	IC50 (JAK2; [1]) [nM]	IC50 (JAK2; [2]) [nM]	Compound
0.07	0.13		CN(C)C(c1ccc(Nc2nn([C@H]3COCC[C@@H]3C#N)c3cc[nH]c(=O)c23)cc1)C(F)(F)F (single isomer, unassigned) [Example 1-18, (3R,4S)-3-[3-({4-[(1R, or 1S)-1-(dimethylamino)-2,2,2-trifluoroethyl]phenyl}amino)-4-oxo-4,5-dihydro-1H-pyrazolo[4,3-c]pyridin-1-yl]tetrahydro-2H-pyran-4-carbonitrile]
0.25		4.65	N#C[C@H]1CCOC[C@@H]1n1nc(Nc2ccnc(F)c2)c2c(=O)[nH]ccc21 [Example 1-30, (3R,4S)-3-{3-[(2-fluoropyridin-4-yl)amino]-4-oxo-4,5-dihydro-1H-pyrazolo[4,3-c]pyridin-1-yl}tetrahydro-2H-pyran-4-carbonitrile]
0.36		5.04	COC(=N)c1cc(Nc2nn([C@H]3COCC[C@@H]3C#N)c3cc[nH]c(=O)c23)ccc1O [Example 1-16, methyl 5-({1-[(3R,4S)-4-cyanotetrahydro-2H-pyran-3-yl]-4-oxo-4,5-dihydro-1H-pyrazolo[4,3-c]pyridin-3-yl}amino)-2-hydroxybenzenecarboximidoate]
0.24	0.27		CN1CCN(C(c2ccc(Nc3nn([C@H]4COCC[C@@H]4C#N)c4cc[nH]c(=O)c34)cc2)C(F)(F)F)CC1 (single isomer, unassigned) [Example 1-36, (3R,4S)-3-[4-oxo-3-({4-[(1R or 1S)-2,2,2-trifluoro-1-(4-methylpiperazin-1-yl)ethyl]phenyl}amino)-4,5-dihydro-1H-pyrazolo[4,3-c]pyridin-1-yl]tetrahydro-2H-pyran-4-carbonitrile]
0.16	0.78		CC(C)(C)OC(=O)CNC(c1ccc(Nc2nn([C@H]3COCC[C@@H]3C#N)c3cc[nH]c(=O)c23)cc1)C(F)(F)F (single isomer, unassigned) [Example 1-40, tert-butyl N-{[(1R or 1S)-1-[4-({1-[(3R,4S)-4-cyanotetrahydro-2H-pyran-3-yl]-4-oxo-4,5-dihydro-1H-pyrazolo[4,3-c]pyridin-3-yl}amino)phenyl]-2,2,2-trifluoroethyl}glycinate]
0.11		1.39	N#C[C@H]1CCOC[C@@H]1n1nc(Nc2ccccc2)c2c(=O)[nH]ccc21 [Example 1-3, (3R,4S)-3-(4-oxo-3-(phenylamino)-4,5-dihydro-1H-pyrazolo[4,3-c]pyridin-1-yl)tetrahydro-2H-pyran-4-carbonitrile]
0.12		0.27	CC(C)N1Cc2ccc(Nc3nn([C@H]4COCC[C@@H]4C#N)c4cc[nH]c(=O)c34)cc2C1 [Example 1-15, (3R,4S)-3-(3-{[2-(1-methylethyl)-2,3-dihydro-1H-isoindol-5-yl]amino}-4-oxo-4,5-dihydro-1H-pyrazolo[4,3-c]pyridin-1-yl)tetrahydro-2H-pyran-4-carbonitrile]
0.09		0.26	CCC(C)(C)S(=O)(=O)c1ccc(Nc2nn([C@H]3COCC[C@@H]3C#N)c3cc[nH]c(=O)c23)cc1 [Example 1-65, (3R,4S)-3-[3-({4-[(1,1-dimethylpropyl)sulfonyl]phenyl}amino)-4-oxo-4,5-dihydro-1H-pyrazolo[4,3-c]pyridin-1-yl]tetrahydro-2H-pyran-4-carbonitrile]
0.08		0.21	CC(C)(C)S(=O)(=O)c1ccc(Nc2nn([C@H]3COCC[C@@H]3C#N)c3cc[nH]c(=O)c23)cc1 [Example 1-13]
0.12	0.24		CC1CCN1S(=O)(=O)c1ccc(Nc2nn([C@H]3COCC[C@@H]3C#N)c3cc[nH]c(=O)c23)cc1 (single isomer, unassigned) [Example 1-78, (3R,4S)-3-{3-[(4-{[(2S or 2R)-2-methylazetidin-1-yl]sulfonyl}phenyl)amino]-4-oxo-4,5-dihydro-1H-pyrazolo[4,3-c]pyridin-1-yl}tetrahydro-2H-pyran-4-carbonitrile]
